# Experiments:
# Format in all cases: functional
# UACC-62 = assay: Cytotoxicity against human UACC62 cells incubated for 48 hrs by sulforhodamine B assay; conditions: UACC-62, 48 h
# A549 [1] = assay: Cell cycle arrest in human A549 cells assessed as accumulation at G2 phase at 1.4 uM after 24 hrs by propidium iodide staining based flow cytometry (reference value: 4.19%)
# K562 = assay: Cytotoxicity against human K562 cells incubated for 48 hrs by sulforhodamine B assay; conditions: K562, 48 h
# NCI-H23 = assay: Cytotoxicity against human NCI-H23 cells incubated for 48 hrs by sulforhodamine B assay; conditions: NCI-H23, 48 h
# SF-268 = assay: Cytotoxicity against human SF268 cells incubated for 48 hrs by sulforhodamine B assay; conditions: SF-268, 48 h
# OVCAR-5 [2] = assay: Growth inhibition of human OVCAR5 cells at 10 uM incubated for 48 hrs by sulforhodamine B assay relative to control; conditions: OVCAR-5, 48 h, read-out: GI
# DU-145 = assay: Cytotoxicity against human DU145 cells incubated for 48 hrs by sulforhodamine B assay; conditions: DU-145, 48 h
# 786-0 = assay: Cytotoxicity against human 786-0 cells incubated for 48 hrs by sulforhodamine B assay; conditions: 786-0, 48 h
# SNB-19 = assay: Cytotoxicity against human SNB19 cells incubated for 48 hrs by sulforhodamine B assay; conditions: SNB-19, 48 h
# HL-60(TB) = assay: Cytotoxicity against human HL-60(TB) cells incubated for 48 hrs by sulforhodamine B assay; conditions: HL-60, 48 h
# HCC 2998 = assay: Cytotoxicity against human HCC2998 cells incubated for 48 hrs by sulforhodamine B assay; conditions: HCC 2998, 48 h
# NCI/ADR-RES = assay: Cytotoxicity against human NCI/ADR-RES cells incubated for 48 hrs by sulforhodamine B assay
# A549 [3] = assay: Cytotoxicity against human A549/ATCC cells incubated for 48 hrs by sulforhodamine B assay; conditions: A549, 48 h
# COLO 205 = assay: Cytotoxicity against human COLO205 cells incubated for 48 hrs by sulforhodamine B assay; conditions: COLO 205, 48 h
# MDA-MB-435 = assay: Cytotoxicity against human MDA-MB-435 cells incubated for 48 hrs by sulforhodamine B assay; conditions: MDA-MB-435, 48 h
# OVCAR-5 [4] = assay: Cytotoxicity against human OVCAR5 cells incubated for 48 hrs by sulforhodamine B assay; conditions: OVCAR-5, 48 h
# MOLT-4 = assay: Cytotoxicity against human MOLT4 cells incubated for 48 hrs by sulforhodamine B assay; conditions: MOLT-4, 48 h
# NCI-H322M = assay: Cytotoxicity against human NCI-H322M cells incubated for 48 hrs by sulforhodamine B assay
# M14 = assay: Cytotoxicity against human M14 cells incubated for 48 hrs by sulforhodamine B assay; conditions: M14, 48 h
# SF-539 = assay: Cytotoxicity against human SF539 cells incubated for 48 hrs by sulforhodamine B assay; conditions: SF-539, 48 h
# SW-620 = assay: Cytotoxicity against human SW620 cells incubated for 48 hrs by sulforhodamine B assay; conditions: SW-620, 48 h
# A549 [5] = assay: Cell cycle arrest in human A549 cells assessed as accumulation at S phase at 1.4 uM after 24 hrs by propidium iodide staining based flow cytometry (reference value: 27.9%)
# Hs-578T = assay: Cytotoxicity against human Hs 578T cells incubated for 48 hrs by sulforhodamine B assay
# OVCAR-8 = assay: Cytotoxicity against human OVCAR8 cells incubated for 48 hrs by sulforhodamine B assay; conditions: OVCAR-8, 48 h
# A549 [6] = assay: Induction of apoptosis in human A549 cells assessed as early apoptotic cells at 1.4 uM after 24 hrs by Annexin V/propidium iodide staining based flow cytometric analysis (reference value: 0.22%)
# CCRF-CEM = assay: Cytotoxicity against human CCRF-CEM cells incubated for 48 hrs by sulforhodamine B assay
# NCI-H522 = assay: Cytotoxicity against human NCI-H522 cells incubated for 48 hrs by sulforhodamine B assay; conditions: NCI-H522, 48 h
# SNB-75 = assay: Cytotoxicity against human SNB75 cells incubated for 48 hrs by sulforhodamine B assay; conditions: SNB-75, 48 h
# A549 [7] = assay: Induction of apoptosis in human A549 cells assessed as late apoptotic cells at 1.4 uM after 24 hrs by Annexin V/propidium iodide staining based flow cytometric analysis (reference value: 0.08%)
# TK-10 = assay: Cytotoxicity against human TK10 cells incubated for 48 hrs by sulforhodamine B assay; conditions: TK-10, 48 h
# BT-549 = assay: Cytotoxicity against human BT549 cells incubated for 48 hrs by sulforhodamine B assay; conditions: BT-549, 48 h
# MDA-MB-468 = assay: Cytotoxicity against human MDA-MB-468 cells incubated for 48 hrs by sulforhodamine B assay; conditions: MDA-MB-468, 48 h
# HOP-62 = assay: Cytotoxicity against human HOP62 cells incubated for 48 hrs by sulforhodamine B assay; conditions: HOP-62, 48 h
# [8] = read-out: LC50 (the source's name)
structure (smiles),measurement,setting,value
COc1ccc(-c2nc3sc(-c4ccc(Cl)cc4)cn3n2)cc1,GI50,UACC-62,8.24 µM
same,TGI,UACC-62,> 50 µM
same,CC50,UACC-62; [8],> 50 µM
same,Activity,A549 [1],14.36%
same,GI50,K562,29.4 µM
same,TGI,K562,> 50 µM
same,CC50,K562; [8],> 50 µM
same,GI50,NCI-H23,6.66 µM
same,TGI,NCI-H23,> 50 µM
same,CC50,NCI-H23; [8],> 50 µM
same,GI50,SF-268,48 µM
same,TGI,SF-268,> 50 µM
same,CC50,SF-268; [8],> 50 µM
same,inhibition of growth at 10 µM,OVCAR-5 [2],48%
same,GI50,DU-145,> 50 µM
same,TGI,DU-145,> 50 µM
same,CC50,DU-145; [8],> 50 µM
same,GI50,786-0,1.06 µM
same,TGI,786-0,2.41 µM
same,CC50,786-0; [8],6.7 µM
same,GI50,SNB-19,2.47 µM
same,TGI,SNB-19,> 50 µM
same,CC50,SNB-19; [8],> 50 µM
same,GI50,HL-60(TB),> 50 µM
same,TGI,HL-60(TB),> 50 µM
same,CC50,HL-60(TB); [8],> 50 µM
same,GI50,HCC 2998,> 50 µM
same,TGI,HCC 2998,> 50 µM
same,CC50,HCC 2998; [8],39.4 µM
same,GI50,NCI/ADR-RES,3.75 µM
same,TGI,NCI/ADR-RES,> 50 µM
same,CC50,NCI/ADR-RES; [8],> 50 µM
same,GI50,A549 [3],1.59 µM
same,TGI,A549 [3],5.89 µM
same,CC50,A549 [3]; [8],46.9 µM
same,GI50,COLO 205,2.56 µM
same,TGI,COLO 205,> 50 µM
same,CC50,COLO 205; [8],> 50 µM
same,GI50,MDA-MB-435,> 50 µM
same,TGI,MDA-MB-435,> 50 µM
same,CC50,MDA-MB-435; [8],> 50 µM
same,GI50,OVCAR-5 [4],2.78 µM
same,TGI,OVCAR-5 [4],> 50 µM
same,CC50,OVCAR-5 [4]; [8],> 50 µM
same,GI50,MOLT-4,11.3 µM
same,TGI,MOLT-4,> 50 µM
same,CC50,MOLT-4; [8],> 50 µM
same,GI50,NCI-H322M,1.76 µM
same,TGI,NCI-H322M,> 50 µM
same,CC50,NCI-H322M; [8],> 50 µM
same,GI50,M14,> 50 µM
same,TGI,M14,> 50 µM
same,CC50,M14; [8],> 50 µM
same,GI50,SF-539,1.85 µM
same,TGI,SF-539,21.5 µM
same,CC50,SF-539; [8],> 50 µM
same,GI50,SW-620,5.51 µM
same,TGI,SW-620,> 50 µM
same,CC50,SW-620; [8],> 50 µM
same,Activity,A549 [5],17.34%
same,GI50,Hs-578T,2.31 µM
same,TGI,Hs-578T,> 50 µM
same,CC50,Hs-578T; [8],> 50 µM
same,GI50,OVCAR-8,2.6 µM
same,TGI,OVCAR-8,> 50 µM
same,CC50,OVCAR-8; [8],> 50 µM
same,Activity,A549 [6],4.23%
same,GI50,CCRF-CEM,> 50 µM
same,TGI,CCRF-CEM,> 50 µM
same,CC50,CCRF-CEM; [8],> 50 µM
same,GI50,NCI-H522,14.9 µM
same,TGI,NCI-H522,> 50 µM
same,CC50,NCI-H522; [8],> 50 µM
same,GI50,SNB-75,1.61 µM
same,TGI,SNB-75,6.85 µM
same,CC50,SNB-75; [8],23.3 µM
same,Activity,A549 [7],4.62%
same,GI50,TK-10,2.01 µM
same,TGI,TK-10,5.62 µM
same,CC50,TK-10; [8],34.8 µM
same,GI50,BT-549,43.2 µM
same,TGI,BT-549,> 50 µM
same,CC50,BT-549; [8],> 50 µM
same,GI50,MDA-MB-468,2.08 µM
same,TGI,MDA-MB-468,> 50 µM
same,CC50,MDA-MB-468; [8],> 50 µM
same,GI50,HOP-62,2.36 µM
same,TGI,HOP-62,> 50 µM
same,CC50,HOP-62; [8],> 50 µM

# — ChEMBL document CHEMBL4270577, “Synthesis, anticancer activity and molecular modeling studies of 1,2,4-triazole derivatives as EGFR inhibitors” (Eur J Med Chem, 2018)
